Results on three compounds are retold here after US20220289731A1, “MELANOCORTIN-4 RECEPTOR AGONISTS” (LG CHEM, LTD., priority 2019, published 2022).

In series [1] the target is T1, MC4R (Homo sapiens, UniProt P32245). Description: β-arrestin assay (Pathhunter eXpress U2OS cell line). It counts as cell-based. Details: expressed in transfected cells; host or cells: U2OS (Pathhunter eXpress β-arrestin cell line). To be noted: U2OS cells, 90 min at 37° C. The text has this:
The melanocortin receptor is a type of G-protein coupled receptor (GPCR) and regulates various physiological responses by transducing signals from many neurotransmitters. When GPCR is phosphorylated, β-arrestin is bound to the phosphorylated part of the receptor and plays an important role in activating various signaling pathways in cells through interaction with other proteins. It is known that, when the melanocortin receptor interacts with an agonist, β-arrestin is mobilized and is involved in the β-arrestin-mediated signaling pathway. Therefore, the activity of the melanocortin receptor can be evaluated through the measurement of β-arrestin.
A Pathhunter eXpress β-arrestin cell line (U2OS cell line) in which Prolink (PK)-tagged MC1R, MC3R, MC4R, MC5R and Enzyme acceptor (EA)-tagged β-arrestin were expressed together was established. When the MCR-PK portion of this cell line is activated, β-arrestin-EA is mobilized, and enzyme acceptor (EA) and Prolink (PK), which are the β-galactosidase enzyme fragments, interact. The activated enzyme hydrolyzes the substrate by β-galactosidase activity to produce a chemiluminescent signal, so that the activity can be measured. After the Pathhunter eXpress β-arrestin cell line (U2OS cell line) was incubated, the cells were inoculated into each well of the cell culture plate and incubated for 48 hours in a 37° C. incubator in the presence of 5% CO2. After the incubation, 5 μl of the sample diluted 5 times with buffer was added, the vehicle concentration was set to 1%, and the MC4R agonist compound diluted at each step concentration was added, followed by reaction at 37° C. for 90 minutes. The activity (%) of each agonist compound is expressed as 100%×(average RLU value of sample−average RLU value of vehicle control)/(average maximum value of control ligand−average RLU value of vehicle control), and the value was analyzed by CBIS data analysis suite (ChemInnovation, CA).
Target sequence in this assay (P32245 whole entry): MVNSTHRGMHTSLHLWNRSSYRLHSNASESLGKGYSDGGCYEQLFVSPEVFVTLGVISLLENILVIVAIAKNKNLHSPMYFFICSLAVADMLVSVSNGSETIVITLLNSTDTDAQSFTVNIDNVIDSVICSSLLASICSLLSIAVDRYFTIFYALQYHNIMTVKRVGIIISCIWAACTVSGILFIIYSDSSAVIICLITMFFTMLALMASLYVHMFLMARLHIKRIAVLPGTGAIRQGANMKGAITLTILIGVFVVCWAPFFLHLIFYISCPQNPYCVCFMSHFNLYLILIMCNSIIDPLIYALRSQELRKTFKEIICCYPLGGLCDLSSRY
Target sequence in this assay (P32121 whole entry partner): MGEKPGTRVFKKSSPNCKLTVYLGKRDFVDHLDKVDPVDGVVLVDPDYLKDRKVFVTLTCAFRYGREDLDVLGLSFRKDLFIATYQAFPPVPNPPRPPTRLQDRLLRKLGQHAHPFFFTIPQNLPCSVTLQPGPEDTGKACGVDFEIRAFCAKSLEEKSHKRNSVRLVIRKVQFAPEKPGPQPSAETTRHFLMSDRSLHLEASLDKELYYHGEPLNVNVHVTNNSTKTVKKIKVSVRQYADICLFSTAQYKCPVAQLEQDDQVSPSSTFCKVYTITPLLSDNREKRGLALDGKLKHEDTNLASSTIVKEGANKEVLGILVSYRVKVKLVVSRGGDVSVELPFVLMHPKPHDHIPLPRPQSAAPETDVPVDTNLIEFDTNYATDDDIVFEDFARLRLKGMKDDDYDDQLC

Series [2] is described as follows: Pharmacokinetic profile in mice, plasma and brain, oral administration. In kind it is in vivo, C57BL6 mice. To be noted: 10 mg/kg; for AUC(0-inf) / half-life / Cmax / Kp: C57BL6, mouse; for Kp: brain/plasma, read-out: Brain to Plasma AUC ratio, mean ratio. How it is done: In order to investigate the pharmacokinetics (PK) properties of the compound of Example 1 and the compounds of comparative examples, the following experiment was performed. In order to perform the PK test for the compound of Example 1 and the compounds of the comparative examples ([…]), about 7 week-old C57BL6 mice were prepared, 12 individuals were assigned per administered substance, separated into groups, and starved for oral administration. On the day of administration, a drug solution was prepared at a concentration of 1 mg/mL by using distilled water (DW) as a vehicle and was orally administered at […] body weight of each individual, and the final dose was 10 mg/kg. At 1, 3, 8, and 24 hours after the administration, whole blood was collected through cardiac blood collection from each of the 3 individuals in each group and then placed in a heparin tube to prevent coagulation. Thereafter, the cerebrum of each individual was collected and placed in an EP tube, the weight of the tissue was measured, and frozen storage was performed at -20° C. […] In this case, AN included an internal standard. […] After 0.5 μL of the supernatant obtained after deproteinization was injected into LC-MS/MS, peak areas of the compounds of the example and the comparative examples ([…]) were corrected with the peak areas of IS to obtain the peak response at each sample collection point and perform the concentration conversion by a calibration curve. The pharmacokinetic parameters (Cmax, AUCinf, t1/2, and the like) were calculated by a noncompartmental analysis method by using WinNonlin 8.1 for the values of the blood concentration with time for each administration group. The pharmacokinetic characteristics of each compound were compared by comparing exposure, half-life changes, and the like for each drug administration group, and the resultant values are shown in Tables 5 and 6.

The target in series [3] is T1, MC4R. Description: cAMP assay (cAMP Hunter Gs-coupled CHO-K1 cell line). It counts as cell-based. Details: expressed in transfected cells; host or cells: CHO-K1 (cAMP Hunter Gs-coupled cell line). The settings on record: CHO-K1 cells overexpressing MC4R, 30 min at 37° C. The text has this:
The melanocortin receptor is a type of G-protein coupled receptor (GPCR), and the main role of G-protein is to activate secondary transducers to regulate cellular responses to many physiological stimuli through signal transduction. MC4R is a Gs-coupled receptor, and it is known that if MC4R interacts with an agonist, adenylate cyclase (AC) is activated to increase the concentration of cyclic AMP (cAMP), which is one of the secondary transducers in cells. Therefore, it is possible to evaluate the activity of melanocortin receptors by measuring the generation of cAMP signals.
After cAMP Hunter Gs-coupled cell lines (CHO-K1 cell line) in which each of MC1R, MC3R, MC4R and MCSR was overexpressed were established so that the increase in the cAMP level in cells due to agonist reaction was measurable, the cells were inoculated into each well of a white cell culture plate and incubated for 24 hours in a 37° C. incubator in the presence of 5% CO2. After the incubation, the medium was removed, and 15 μl of a 2:1 HBBS/10 mM HEPES:cAMP XS+Ab reagent was added. After 5 μl of the sample diluted 4 times with buffer was added, the vehicle concentration was set to 1%, and the MC4R agonist compound diluted at each step concentration was added, followed by reaction at 37° C. for 30 minutes. The activity (%) of each agonist compound is expressed as 100%×(average RLU value of sample−average RLU value of vehicle control)/(average RLU value of max control−average RLU value of vehicle control), and the value was analyzed by CBIS data analysis suite (ChemInnovation, CA).
Target sequence in this assay (P32245 whole entry, species assumed): as the sequence (P32245 whole entry) above
(In general: Cyclic AMP is a second messenger, typically raised through Gs and lowered through Gi signalling.)

The mark [4] stands for this setting: brain, read-out: t1/2, Brain (converted).
[5] abbreviates: plasma, read-out: AUCinf, Plasma.
Where [6] appears, read: plasma, read-out: t1/2, Plasma (converted).

Each structure is given as a SMILES string. Like-named read-outs stand apart in the source and are kept apart here.

Consider `CC(=O)N(C1CCC(C)(C)CC1)[C@H]1C[C@@H](C(=O)N2CCOCC2)N(C(=O)[C@@H]2CN(C(C)(C)C)C[C@H]2c2ccc(F)cc2F)C1.Cl` [Comparative Example 1 (A95), N-((3S,5S)-1-((3S,4R)-1-(tert-butyl)-4-(2,4-difluorophenyl)pyrrolidine-3-carbonyl)-5-(morpholine-4-carbonyl)pyrrolidin-3-yl)-N-(4,4-dimethylcyclohexyl)acetamide hydrochloride], for which the values for the EC50 at MC4R [1] and at MC4R [3] were 176 nM and 335 nM, respectively. Further, the “Cmax, Brain” value in series [2] (brain) was found to be 20 ng/mL. The AUC(0-inf) in series [2] (brain, read-out: AUCinf, Brain) is 222 ng·h/mL; in series [2] (setting [5]), 565 ng·h/mL. The half-life in series [2] (setting [4]) is 6 h; in series [2] (setting [6]), 2.7 h. For the same compound, the Cmax (in general, the highest concentration seen after dosing) in series [2] (plasma) turned out to be 205 ng/mL. In series [2], the Kp was 0.39.
As to `CC(=O)N(C1CCC(C)(C)CC1)[C@H]1C[C@@H](C(=O)N2CCOCC2)N(C(=O)[C@@H]2CN(C(C)(C)C)C[C@H]2c2ccc(Cl)cc2)C1.Cl` [Comparative Example 2 (A96), N-((3S,5S)-1-((3S,4R)-1-(tert-butyl)-4-(4-chlorophenyl)pyrrolidine-3-carbonyl)-5-(morpholine-4-carbonyl)pyrrolidin-3-yl)-N-(4,4-dimethylcyclohexyl)acetamide hydrochloride], the values for the EC50 at MC4R [1] and on MC4R [3] were 44.3 nM and 150 nM, respectively. Further, in series [2] (brain), the “Cmax, Brain” value came to 27.1 ng/mL. In addition, the AUC(0-inf) in series [2] (brain, read-out: AUCinf, Brain) was 530 ng·h/mL; in series [2] (setting [5]), 1650 ng·h/mL. Moreover, the half-life was 8 h in series [2] (setting [4]) and 2.6 h in series [2] (setting [6]). Moreover, the peak level in series [2] (plasma) (Cmax) was 337 ng/mL. In addition, the Kp in series [2] stood at 0.32.
In the case of `CC(C)C(=O)N([C@H]1C[C@@H](C(=O)N2CCOCC2)N(C(=O)[C@@H]2CN(C(C)(C)C)C[C@H]2c2ccc(Cl)cc2)C1)[C@H]1CC[C@@H](C)CC1.Cl` [Example 1, N-((3S,5S)-1-((3S,4R)-1-(tert-butyl)-4-(4-chlorophenyl)pyrrolidine-3-carbonyl)-5-(morpholine-4-carbonyl)pyrrolidin-3-yl)-N-((1s,4R)-4-methylcyclohexyl)isobutyramide hydrochloride], the EC50 (commonly the concentration at which the effect is half-maximal) at MC4R [1] turned out to be 4.6 nM; on MC4R [3], 36.5 nM. Moreover, the “Cmax, Brain” value in series [2] (brain) amounted to 49.1 ng/mL. The AUC(0-inf) in series [2] (brain, read-out: AUCinf, Brain) came to 1500 ng·h/mL; in series [2] (setting [5]), 2070 ng·h/mL. The half-life in series [2] (setting [4]) is 19 h; in series [2] (setting [6]) it was 3.9 h. In addition, in series [2] (plasma), the peak level (Cmax) was 232 ng/mL. For the same compound, the Kp in series [2] amounted to 0.72.
